Source: patent publication US9375434B2, “Antitumor effect potentiator composed of imidazooxazine compound” (Taiho Pharmaceutical Co., Ltd., priority 2012, dated 2016)

What was measured:
Format in all cases: in vivo, BALB/cA Jcl-nu/nu mice
[1] = tested on: Human ovarian cancer A2780 cell line; test: Potentiation of antitumor effect of paclitaxel, A2780 subcutaneous implant in nude mice (Test Example 1)
Procedure: Human ovarian cancer A2780 cell line was subcutaneously implanted into the right flank of 7-week-old male BALB/cA Jcl-nu/nu mice. After the implant, the length (mm) and the width (mm) of the tumor were measured, and the tumor volume (TV) was calculated. Thereafter, the mice were divided into groups so that the average TV is equalized in each group. The day of grouping (n=5) is referred to as Day 0. […] Test liquids for the groups receiving only Compound-I were prepared by diluting Compound-I with 0.5% hydroxypropyl methylcellulose (HPMC) so as to enable administration at a Compound-I dose of 8 mg/kg/day, 16 mg/kg/day, and 24 mg/kg/day. […] In the groups receiving the two drugs, Compound-I was administered at doses of 8 mg/kg/day, 16 mg/kg/day, and 24 mg/kg/day, and paclitaxel was administered at a dose of 60 mg/kg/day. […] In the figure, the asterisk represents a result having a statistically significant difference compared with the single-drug administration group. FIG. 1 and Table 10 show the results.

[2] = tested on: Human stomach cancer cell line (NCI-N87); test: Potentiation of antitumor effect of paclitaxel, NCI-N87 subcutaneous implant in nude mice (Test Example 2)
Procedure: In the figure, the asterisk represents a result having a statistically significant difference compared with the single-drug administration group. FIG. 1 and Table 10 show the results. […] Ltd.) was prepared to enable administration at a paclitaxel dose of 60 mg/kg/day. Further, test liquids for the groups receiving only Compound-I were prepared to enable administration at Compound-I doses of 8 mg/kg/day, 16 mg/kg/day, and 24 mg/kg/day. […] In the groups receiving the two drugs, Compound-I was administered at doses of 8 mg/kg/day, 16 mg/kg/day, and 24 mg/kg/day, and paclitaxel was administered at a dose of 60 mg/kg/day. The evaluation was performed in the same manner as in Test Example 1. The effect of the combined administration was also statistically determined in the same manner as in Test Example 1. In the figure and the table, the asterisk represents a result having a statistically significant difference compared with the single-drug administration group. FIG. 3 and Table 11 show the results.

[3] = tested on: Human stomach cancer cell line (NCI-N87); test: Potentiation of antitumor effect of lapatinib, NCI-N87 subcutaneous implant in nude mice (Test Example 4); conditions: compound-I 16 mg/kg/day p.o. day 1-14 (q.d.)
Procedure: In the figure, the asterisk represents a result having a statistically significant difference compared with the single-drug administration group. FIG. 1 and Table 10 show the results. […] Lapatinib was prepared by adjusting its dose to 100 mg/kg/day. Further, the test liquid of Compound-I was prepared by adjusting its dose to 16 mg/kg/day. […] The effect of the combined administration was also statistically determined in the same manner as in Test Example 1. In the figure and the table, the asterisk represents a result having a statistically significant difference compared with the single-drug administration group. FIG. 7 and Table 13 show the results.

[4] = tested on: Human ovarian cancer cell line (A2780); test: Potentiation of antitumor effect of irinotecan, A2780 subcutaneous implant in nude mice (Test Example 5); conditions: compound-I 16 mg/kg/day p.o. day 1-14
Procedure: (§1) As an index of antitumor effect, the TV at Day 15 was measured for each of the drug administration groups, and the relative tumor volume (RTV) relative to Day 1 and T/C (%) were calculated by the following formulas to evaluate the antitumor effect.
(§2) TV (mm^3)=(length×width^2)/2 RTV=(TV at Day 15)/(TV at Day 1) T/C(%)=(average RTV value of the test liquid administration group)/(average RTV value of the control group)×100
Human ovarian cancer cell line (A2780) was subcutaneously implanted into the right flank of 7-week-old male BALB/cA Jcl-nu/nu mice, and was used in the same manner as in Test Example 1. […] Further, the test liquid of Compound-I was prepared by adjusting its dose to 16 mg/kg/day.
The effect of the combined administration was also statistically determined in the same manner as in Test Example 1. […] FIG. 9 and Table 14 show the results. Further, the change in the body weight over time was evaluated as an index of toxicity in the same manner as in Test Example 1.

[5] = tested on: Human ovarian cancer cell line (A2780); test: Potentiation of antitumor effect of doxorubicin, A2780 subcutaneous implant in nude mice (Test Example 6)
Procedure: In the groups receiving only Compound-I, the test liquid was prepared by diluting Compound-I with 0.5% HPMC to enable administration at a Compound-I dose of 16 mg/kg/day. […] The effect of the combined administration was also statistically determined in the same manner as in Test Example 1.

[6] = tested on: Human stomach cancer cell line (4-1ST); test: Potentiation of effect of trastuzumab (Herceptin), 4-1ST subcutaneous implant in nude mice (Test Example 11); conditions: Day 1~14, p.o.
Procedure: as §1, §2
Human stomach cancer cell line (4-1ST) was subcutaneously implanted into the right flank of 6-week-old male BALB/cA Jcl-nu/nu mice, and was used in the same manner as in Test Example 1.
According to the package insert, 7.2 mL of water for injection was added to a vial containing 150 mg of trastuzumab (Roche Pharma) using a sterilized injection syringe. The resulting 21 mg/mL solution was kept in a freezer. At the time of use, the frozen solution was diluted 10.5-fold with 4.75 mL of physiological saline at a trastuzumab concentration of 2.0 mg/mL, to yield a liquid for administration at a trastuzumab dose of 20 mg/kg/day. The test liquids of Compound-I were prepared to enable administration at doses of 16 and 24 mg/kg/day.
Compound-I and trastuzumab were administered once a day from Day 1 to 14. In the combined administration groups, Compound-I was administrated at a dose of 16 and 24 mg/kg/day, trastuzumab was administrated at a dose of 20 mg/kg/day, and the evaluation was performed in the same manner as in Test Example 1. FIGS. 17A and 17B and Table 20 show the results. In the medium/Compound I administration group, the test liquid was orally administered once a day for consecutive days. In the trastuzumab administration group, the test liquid was intraperitoneally administered once a day for consecutive days.
The effect of the combined administration was statistically determined in the same manner as in Test Example 7.

[7] = compound-I 8 mg/kg/day p.o. day 1-14
[8] = compound-I 16 mg/kg/day p.o. day 1-14
[9] = compound-I 24 mg/kg/day p.o. day 1-14

## CC1(O)CC(N)(c2ccc(-c3nc4n(c3-c3ccccc3)COc3ccncc3-4)cc2)C1 (stereo not drawn) [compound-I, trans-3-amino-1-methyl-3-(4-(3-phenyl-5H-imidazo[1,2-c]pyrido[3,4-e][1,3]oxazin-2-yl)phenyl)cyclobutanol]
[1]; [7]
  RTV day 15 Mean ± SD: 23.66 ± 9.16
  T/C (%): 92%
[1]; [8]
  RTV day 15 Mean ± SD: 19.91 ± 1.41
  T/C (%): 77%
[1]; [9]
  RTV day 15 Mean ± SD: 18.94 ± 5.52
  T/C (%): 74%
[2]; [7]
  RTV day 15 Mean ± SD: 2.02 ± 0.41
  T/C (%): 59%
[2]; [8]
  RTV day 15 Mean ± SD: 1.32 ± 0.38
  T/C (%): 39%
[2]; [9]
  RTV day 15 Mean ± SD: 0.98 ± 0.28
  T/C (%): 29%
[3]
  RTV day 15 Mean ± SD: 1.14 ± 0.11
  T/C (%): 42%
[4]
  RTV day 15 Mean ± SD: 19.16 ± 2.60
  T/C (%): 63%
[5]; compound-I 16 mg/kg/day day 1-14
  T/C (%): 80%
[5]; [8]
  RTV day 15 Mean ± SD: 22.17 ± 7.20
[6]; compound-I 16 mg/kg/day
  RTV^b) (mean ± SD): 3.01 ± 0.51
  TGI^c) (%): 57.5%
[6]; compound-I 24 mg/kg/day
  RTV^b) (mean ± SD): 2.74 ± 0.29
  TGI^c) (%): 61.4%
